Data reported in patent publication US20190353647A1, “NOVEL REAL-TIME MULTIPLEXED, MULTI-COLOR BIOLUMINESCENCE RESONANCE ENERGY TRANSFER ASSAY, APPARATUS, AND USES THEREOF” (Universite de Bordeaux, priority 2016, published 2019).

Tests used:
TRPV3 = molecular target: T1, TRPV3 (Homo sapiens, UniProt Q8NET8); assay: Intermolecular BRET assay, Luc-TRPV3/YFP-CaM in HEK293T cells; format: cell-based; set-up: expressed in transfected cells; host or cells: HEK293T; details: dose-response; for BRET signal between YFP-CaM and Luc-TRPV3 on challenge: FIG. 1
T1 sequence (Q8NET8 1-790): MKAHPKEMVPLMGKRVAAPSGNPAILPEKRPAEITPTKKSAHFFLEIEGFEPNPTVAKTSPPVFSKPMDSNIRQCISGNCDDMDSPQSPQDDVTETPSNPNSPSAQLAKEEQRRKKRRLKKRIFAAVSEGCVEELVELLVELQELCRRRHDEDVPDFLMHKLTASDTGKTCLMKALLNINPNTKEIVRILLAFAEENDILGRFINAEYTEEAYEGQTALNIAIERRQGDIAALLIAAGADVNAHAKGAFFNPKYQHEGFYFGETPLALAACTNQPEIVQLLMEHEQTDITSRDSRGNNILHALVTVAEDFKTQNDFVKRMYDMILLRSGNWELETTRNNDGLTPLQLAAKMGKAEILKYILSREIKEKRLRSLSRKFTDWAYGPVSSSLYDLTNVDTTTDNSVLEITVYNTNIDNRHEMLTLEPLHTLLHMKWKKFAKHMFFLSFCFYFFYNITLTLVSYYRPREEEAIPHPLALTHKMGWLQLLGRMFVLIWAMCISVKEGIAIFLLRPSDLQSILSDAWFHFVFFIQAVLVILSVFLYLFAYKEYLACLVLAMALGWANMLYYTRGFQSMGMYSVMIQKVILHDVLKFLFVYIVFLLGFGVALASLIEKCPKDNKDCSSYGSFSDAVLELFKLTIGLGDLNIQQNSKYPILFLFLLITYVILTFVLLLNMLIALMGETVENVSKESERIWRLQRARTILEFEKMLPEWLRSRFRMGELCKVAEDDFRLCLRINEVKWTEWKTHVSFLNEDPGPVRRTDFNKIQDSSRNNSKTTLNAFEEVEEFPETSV
Excerpt: (§1) In order to generate the BRET constructs, super Yellow Fluorescent Protein 2 and Renilla Luciferase II were used to improve the brightness of the assay. They were referred as YFP and Luc for short in the rest of the manuscript. The cDNA of Luc and YFP were first cloned together using a three-piece ligation in the BamHI/XhoI site of pcDNA3.1(+) (Invitrogen, Carlsbad, Calif., USA), yielding two expression vectors pcDNA3.1 YFP-Luc where YFP was cloned in-fusion at the N-terminal of Luc, and pcDNA3.1 Luc-YFP where Luc was cloned in-fusion at the N-terminal of YFP. Both YFP and Luc were amplified by PCR from the pcDNA3-YFP-EPAC-Luc vector. Luc was cloned either at the N-terminal of YFP as a HindIII-EcoRI fragment (primers used: “Luc_HindIII_ATGN-term sense” and “Luc_no Stop_EcoRI_N-term antisense”) or at the COOH-terminal of YFP as an EcoRI-XhoI fragment (primer used: “Luc_EcoRI_ATG_C-term sense” and “Luc_XhoI_Stop_C-term antisense”). In parallel, YFP was cloned either at the N-terminal of Luc as a HindIII-EcoRI fragment (primers used: “YFP_HindIII_ATG_N-term sense” and “YFP_no Stop_EcoRI_N-term antisense”) or at the COOH-terminal of Luc as a EcoRI-XhoI fragment (primer used: “YFP_EcoRI_ATG_C-term sense” and “YFP_XhoI_Stop_C-term antisense”). The sequence joining Luc and YFP sequence encoded […] (SEQ ID NO: 18) as a linker, and contained an AgeI restriction site. The YFP-hTRPV1-Luc expression vector was obtained by subcloning the human TRPV1 cDNA from the pDONR201-hTRPV1 vector (Harvard Medical School PlasmID Repository, clone HsCD00081472) as an EcoRI PCR fragment in the EcoRI site of the vector pcDNA3.1 YFP-Luc (primer used: “hTRPV1_EcoRI_Fus_Sense” and “hTRPV1_EcoRI_Fus_antisense”). The hTRPV1-Luc expression vector was obtained by subcloning the cDNA of hTRPV1 as a HindIII-EcoRI fragment in place of the YFP in the HindIII-EcoRI site of the pcDNA3.1 YFP-Luc vector (primer used: “hTRPV1_HindIII_ATG_Sense” and “hTRPV1_EcoRI_Fus_antisense”). […]
(§2) HEK293T cells were maintained in Dulbecco's modified Eagle's medium-high Glucose (DMEM) (D6429, Sigma) supplemented with 10% fetal bovine serum, 100 units mL-1 penicillin and streptomycin. […] After overnight incubation, transfected cells were then detached, resuspended in DMEM w/o red phenol (Ref 21063-029, ThermoFisher scientific, Waltham, Mass., USA) and replated at a density of 10^5 cells per well in 96-well white plates with clear bottoms (Greiner Bio one, Courtaboeuf, France) pre-treated with D-polylysine (Sigma) for reading with the Tristar2 luminometer (Berthold Technologies, Bad Wildbad, Germany) or onto 12 mm diameter glass coverslips (Knittel Glass, Braunschweig, Germany) treated with poly-L-lysine for the reading with the SpectraPro 2300i spectrometer (Acton Optics, Acton, Mass., USA). […]

TRPV4 = TRPV4 (Homo sapiens, UniProt Q9HBA0); assay: Intermolecular BRET assay, TRPV4-Luc/YFP-CaM in HEK293T cells; format: cell-based; set-up: expressed in transfected cells; host or cells: HEK293T; details: for TRPV4-Luc/YFP-CaM basal BRET signal on challenge: HEK293T, dose-response, FIG. 1
Sequence of TRPV4 (Q9HBA0 whole entry): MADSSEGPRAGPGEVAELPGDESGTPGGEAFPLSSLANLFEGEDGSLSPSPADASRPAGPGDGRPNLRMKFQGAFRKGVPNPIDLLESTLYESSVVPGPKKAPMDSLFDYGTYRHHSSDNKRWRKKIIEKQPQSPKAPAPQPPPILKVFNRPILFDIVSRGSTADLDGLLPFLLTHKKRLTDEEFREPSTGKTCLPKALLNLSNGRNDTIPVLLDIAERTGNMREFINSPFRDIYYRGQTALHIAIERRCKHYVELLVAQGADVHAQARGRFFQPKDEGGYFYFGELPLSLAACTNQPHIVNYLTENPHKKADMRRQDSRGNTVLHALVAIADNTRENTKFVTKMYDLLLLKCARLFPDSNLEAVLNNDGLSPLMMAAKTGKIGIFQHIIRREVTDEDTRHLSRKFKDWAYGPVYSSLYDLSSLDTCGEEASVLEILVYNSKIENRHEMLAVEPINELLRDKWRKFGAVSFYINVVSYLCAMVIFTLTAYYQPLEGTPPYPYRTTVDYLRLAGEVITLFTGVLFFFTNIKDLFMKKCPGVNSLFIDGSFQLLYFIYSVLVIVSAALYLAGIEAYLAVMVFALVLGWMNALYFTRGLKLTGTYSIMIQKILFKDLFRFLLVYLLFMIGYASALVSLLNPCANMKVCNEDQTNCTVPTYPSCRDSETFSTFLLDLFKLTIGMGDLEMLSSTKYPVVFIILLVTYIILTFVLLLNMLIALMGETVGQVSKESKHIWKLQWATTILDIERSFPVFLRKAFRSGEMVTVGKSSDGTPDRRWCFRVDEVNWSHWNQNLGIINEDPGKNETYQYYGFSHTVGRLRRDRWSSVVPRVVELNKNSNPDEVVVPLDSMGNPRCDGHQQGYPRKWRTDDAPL
Excerpt: as §1, §2

Row | SMILES | BRET signal between YFP-CaM and Luc-TRPV3 on challenge (TRPV3) | TRPV4-Luc/YFP-CaM basal BRET signal on challenge (TRPV4) | EC50 (TRPV3; FIG. 1, read-out: EC50 of BRET signal increase between YFP-CaM and Luc-TRPV3) | EC50 (TRPV4)
1 | COc1cc(CNC(=O)CCCC/C=C/C(C)C)ccc1O [CAPS, Capsaicin] | no dose-dependent BRET increase | did not produce any increase | – | –
2 | CCN(CC)CCOC(=O)C(c1ccccc1)C1CCCCC1 (centres unmarked) [Drofenine] | dose-dependent increase | did not produce any increase | 206 µM | –
3 | CC(C)C[C@H](NC(=O)c1cc2ccccc2s1)C(=O)N1CCN(C(=O)[C@H](CO)NS(=O)(=O)c2ccc(Cl)cc2Cl)CC1 [GSK1016790A] | no dose-dependent BRET increase | dose-dependent increase | – | 0.00193 µM
